For orientation: melting point means the temperature, or range, at which the solid turns liquid.

In one series the test system is Cercospora beticola. Briefly: Leaf Spot of Sugar Beets (CERCBE) disease control. The conditions noted are these: 1 Day Protectant, sugar beet; for pest or weed control at 100 ppm: Cercospora beticola, topical, 24 h, read-out: Disease Control CERCBE 1 DP. The class given is in vivo. How it is done: Technical grades of materials were dissolved in acetone, which were then mixed with nine volumes of water containing 110 ppm Triton X-100. The fungicide solutions were applied onto wheat seedlings using an automated booth sprayer to run-off. All sprayed plants were allowed to air dry prior to further handling. All fungicides were evaluated using the aforementioned method for their activity vs. all target diseases. Wheat leaf blotch and brown rust activity were also evaluated using track spray applications, in which case the fungicides were formulated as EC formulations, containing 0.1% Trycol 5941 in the spray solutions. Wheat plants (variety Yuma) were grown from seed in a greenhouse in 50% mineral soil/50% soil-less Metro mix until the first leaf was fully emerged, with 7-10 seedlings per pot. These plants were inoculated with an aqueous spore suspension of Septoria tritici either prior to or after fungicide treatments. After inoculation the plants were kept in 100% relative humidity (one day in a dark dew chamber followed by two to three days in a lighted dew chamber at 20° C.) to permit spores to germinate and infect the leaf. The plants were then transferred to a greenhouse set at 20° C. for disease to develop. When disease symptoms were fully expressed on the 1st leaves of untreated plants, infection levels were assessed on a scale of 0 to 100 percent disease severity. Percent disease control was calculated using the ratio of disease severity on treated plants relative to untreated plants. Sugar beet plants (variety HH88) were grown in soil-less Metro mix and trimmed regularly to maintain a uniform plant size prior to test. Plants were inoculated with a spore suspension 24 hr after fungicide treatments. Inoculated plants were kept in a dew chamber at 22° C. for 48 hr then incubated in a greenhouse set at 24° C. under a clear plastic hood with bottom ventilation until disease symptoms were fully expressed. Fungicide formulation, application and disease assessment on the sprayed leaves followed the procedures as described in the Example A.

Take `CCCO[C@@H]1[C@@H](CCC(C)C)CCC[C@H](NC(=O)c2nccc(OC)c2OC(C)=O)C(=O)O[C@H]1C` [Compound F64]: in the series on Cercospora beticola, the pest or weed control at 100 ppm was in the range of 80 to 100%.
Same read-out and setting: the result for `COc1ccnc(C(=O)N[C@H]2CCC[C@H](Cc3ccc(F)cc3)[C@@H](OCC3CC3)[C@H](C)OC2=O)c1OC(C)=O` [Compound F67] reads 80 to 100%; that for `COc1ccnc(C(=O)N[C@H]2CCC[C@H](Cc3ccccc3)[C@@H](OCC(C)C)[C@H](C)OC2=O)c1OC(C)=O` [Compound F70], 80 to 100%.
Still for that read-out and setting: next, `COCC[C@H]1CCC[C@H](NC(=O)c2nccc(OC)c2OC(C)=O)C(=O)O[C@@H](C)[C@@H]1Oc1ccccc1` [Compound F78]: 80 to 100%; `COc1ccnc(C(=O)N[C@H]2CCC[C@H](CCBr)[C@@H](Oc3ccccc3)[C@H](C)OC2=O)c1OC(C)=O` [Compound F80]: 80 to 100%; `CC[C@H]1CCC[C@H](NC(=O)c2nccc(OC)c2OC(C)=O)C(=O)O[C@@H](C)[C@@H]1Oc1ccccc1` [Compound F81]: 80 to 100%.
Still for that read-out and setting: the result for `COc1ccnc(C(=O)N[C@H]2CCC[C@H](CC(F)F)[C@@H](Oc3ccccc3)[C@H](C)OC2=O)c1OC(C)=O` [Compound F82] reads 80 to 100%.
On to `C=C[C@H]1CCC[C@H](NC(=O)c2nccc(OC)c2OC(C)=O)C(=O)O[C@@H](C)[C@@H]1Oc1ccccc1` [Compound F86], for which, in the series with Cercospora beticola, the pest or weed control at 100 ppm lay within 80 to 100%.
In the case of `CCO[C@@H]1[C@@H](Cc2ccccc2)CCC[C@H](NC(=O)c2nccc(OC)c2OC(C)=O)C(=O)O[C@H]1C` [Compound F87], in the series on Cercospora beticola, the pest or weed control at 100 ppm is 80 to 100%.
The same measure, in the same setting: next, `CCCO[C@@H]1[C@@H](Cc2ccccc2)CCC[C@H](NC(=O)c2nccc(OC)c2OC(C)=O)C(=O)O[C@H]1C` [Compound F88]: 80 to 100%.
With `CCCO[C@@H]1[C@@H](CCC(C)C)CCC[C@H](NC(=O)c2nccc(OC)c2OCOC(C)=O)C(=O)O[C@H]1C` [Compound F92], the pest or weed control at 100 ppm in the series on Cercospora beticola is 80 to 100%.
Regarding `COc1ccnc(C(=O)N[C@H]2CCC[C@H](Cc3ccc(F)cc3)[C@@H](OCC3CC3)[C@H](C)OC2=O)c1OCOC(C)=O` [Compound F96], in the series on Cercospora beticola, the pest or weed control at 100 ppm is 80 to 100%.
Take `COc1ccnc(C(=O)N[C@H]2CCC[C@H](Cc3ccc(F)cc3)[C@@H](OCC3CC3)[C@H](C)OC2=O)c1OCOC(C)=O` [Compound F98]: in the series on Cercospora beticola (100 ppm), the “Disease Control CERCBE 1 DP” value is reported as “A (80-100)”.
For `CCCO[C@@H]1[C@@H](Cc2ccc(F)cc2)CCC[C@H](NC(=O)c2nccc(OC)c2OCOC(C)=O)C(=O)O[C@H]1C` [Compound F101], the pest or weed control at 100 ppm in the series on Cercospora beticola was 80 to 100%.
The same measure, in the same setting: next, `COc1ccnc(C(=O)N[C@H]2CCC[C@H](Cc3ccccc3)[C@@H](OCC3CC3)[C@H](C)OC2=O)c1OCOC(C)=O` [Compound F107]: 80 to 100%.
The same measure, in the same setting: next, `COc1ccnc(C(=O)N[C@H]2CCC[C@H](Cc3ccccc3)[C@@H](Oc3ccccc3)[C@H](C)OC2=O)c1OCOC(C)=O` [Compound F108]: 80 to 100%; `CCCO[C@@H]1[C@@H](Cc2ccccc2)CCC[C@H](NC(=O)c2nccc(OC)c2OCOC(C)=O)C(=O)O[C@H]1C` [Compound F109]: 80 to 100%; `COc1ccnc(C(=O)N[C@H]2CCC[C@H](CC3CCCCC3)[C@@H](OCC(C)C)[C@H](C)OC2=O)c1OCOC(C)=O` [Compound F113]: 80 to 100%.
The same measure, in the same setting: next, `COc1ccc(C[C@H]2CCC[C@H](NC(=O)c3nccc(OC)c3OCOC(C)=O)C(=O)O[C@@H](C)[C@@H]2Oc2ccccc2)cc1` [Compound F114]: 80 to 100%.
Regarding `COc1ccnc(C(=O)N[C@H]2CCC[C@H](CC3CCCC3)[C@@H](OCC3CC3)[C@H](C)OC2=O)c1OCOC(C)=O` [Compound F117], the pest or weed control at 100 ppm with Cercospora beticola is 80 to 100%.
As for `COc1ccc(C[C@H]2CCC[C@H](NC(=O)c3nccc(OC)c3OCOC(C)=O)C(=O)O[C@@H](C)[C@@H]2OCC(C)C)cc1` [Compound F118], the pest or weed control at 100 ppm in the series on Cercospora beticola lay in the range of 80 to 100%.
With `CCCO[C@@H]1[C@@H](Cc2ccc(OC)cc2)CCC[C@H](NC(=O)c2nccc(OC)c2OCOC(C)=O)C(=O)O[C@H]1C` [Compound F119], the pest or weed control at 100 ppm in the series with Cercospora beticola is 80 to 100%.
For the molecule `COc1ccnc(C(=O)N[C@H]2CCC[C@H](Cc3ccc(C)cc3)[C@@H](OCC(C)C)[C@H](C)OC2=O)c1OCOC(C)=O` [Compound F126], in the series with Cercospora beticola, the pest or weed control at 100 ppm lay within 80 to 100%.
Take `COc1ccnc(C(=O)N[C@H]2CCC[C@H](CCF)[C@@H](OCC(C)C)[C@H](C)OC2=O)c1OCOC(C)=O` [Compound F128, ((2-(((3S,7R,8R,9S)-7-(2-fluoroethyl)-8-isobutoxy-9-methyl-2-oxooxonan-3-yl)carbamoyl)-4-methoxypyridin-3-yl)oxy)methyl acetate]: the pest or weed control at 100 ppm with Cercospora beticola lay within 80 to 100%.
Consider `COCC[C@H]1CCC[C@H](NC(=O)c2nccc(OC)c2OCOC(C)=O)C(=O)O[C@@H](C)[C@@H]1Oc1ccccc1` [Compound F130], for which the pest or weed control at 100 ppm in the series with Cercospora beticola fell in the range of 0 to 80%.
Regarding `COc1ccnc(C(=O)N[C@H]2CCC[C@H](CC(F)F)[C@@H](Oc3ccccc3)[C@H](C)OC2=O)c1OCOC(C)=O` [Compound F138], the pest or weed control at 100 ppm with Cercospora beticola is 80 to 100%.
`COc1ccnc(C(=O)N[C@H]2CCC[C@H](Cc3ccc(F)cc3F)[C@@H](OC(=O)c3ccco3)[C@H](C)OC2=O)c1OCOC(C)=O` [Compound F144] showed a melting point of 76 to 80 °C. Besides, the pest or weed control at 100 ppm with Cercospora beticola was in the range of 0 to 80%.
`COc1ccnc(C(=O)N[C@H]2CCC[C@H](Cc3ccc(F)cc3F)[C@@H](OCC(C)C)[C@H](C)OC2=O)c1OCOC(C)=O` [Compound F145] returned a melting point of 48 to 53 °C. For the same molecule, in the series with Cercospora beticola, the pest or weed control at 100 ppm is 80 to 100%.
As for `C=C[C@H]1CCC[C@H](NC(=O)c2nccc(OC)c2OCOC(C)=O)C(=O)O[C@@H](C)[C@@H]1Oc1ccccc1` [Compound F146], the pest or weed control at 100 ppm in the series on Cercospora beticola was 80 to 100%.
Take `COc1ccnc(C(=O)N[C@H]2CCC[C@H](Cc3ccccc3)[C@@H](OCC3CC3)[C@H](C)OC2=O)c1OCOC(=O)C(C)C` [Compound F152]: in the series on Cercospora beticola, the pest or weed control at 100 ppm fell in the range of 80 to 100%.
In turn, `COc1ccnc(C(=O)N[C@H]2CCC[C@H](Cc3ccc(F)cc3F)[C@@H](OC(=O)c3ccco3)[C@H](C)OC2=O)c1OCOC(=O)C(C)C` [Compound F157] showed a melting point of 68 to 72 °C. Besides, in the series on Cercospora beticola, the pest or weed control at 100 ppm lay in the range of 80 to 100%.
Take `CCCO[C@@H]1[C@@H](CCC(C)C)CCC[C@H](NC(=O)c2nccc(OC)c2OCOC(=O)COCC)C(=O)O[C@H]1C` [Compound F161]: the pest or weed control at 100 ppm with Cercospora beticola lay within 80 to 100%.
On the same count and under the same terms, the result for `CCOCC(=O)OCOc1c(OC)ccnc1C(=O)N[C@H]1CCC[C@H](Cc2ccc(F)cc2)[C@@H](OCC2CC2)[C@H](C)OC1=O` [Compound F164] reads 80 to 100%; that for `CCCO[C@@H]1[C@@H](Cc2ccc(F)cc2)CCC[C@H](NC(=O)c2nccc(OC)c2OCOC(=O)COCC)C(=O)O[C@H]1C` [Compound F167], 80 to 100%.
`CCOCC(=O)OCOc1c(OC)ccnc1C(=O)N[C@H]1CCC[C@H](Cc2ccccc2)[C@@H](OCC(C)C)[C@H](C)OC1=O` [Compound F172]: the pest or weed control at 100 ppm in the series with Cercospora beticola was in the range of 80 to 100%.
In the case of `CCOCC(=O)OCOc1c(OC)ccnc1C(=O)N[C@H]1CCC[C@H](Cc2ccccc2)[C@@H](OCC2CC2)[C@H](C)OC1=O` [Compound F173], the pest or weed control at 100 ppm with Cercospora beticola was in the range of 80 to 100%.
With `CCCO[C@@H]1[C@@H](Cc2ccccc2)CCC[C@H](NC(=O)c2nccc(OC)c2OCOC(=O)COCC)C(=O)O[C@H]1C` [Compound F174], the pest or weed control at 100 ppm in the series on Cercospora beticola was in the range of 80 to 100%.
On the same count and under the same terms, the result for `CCOCC(=O)OCOc1c(OC)ccnc1C(=O)N[C@H]1CCC[C@H](CC2CCCCC2)[C@@H](OCC(C)C)[C@H](C)OC1=O` [Compound F175] reads 80 to 100%; that for `CCOCC(=O)OCOc1c(OC)ccnc1C(=O)N[C@H]1CCC[C@H](CCF)[C@@H](OCC(C)C)[C@H](C)OC1=O` [Compound F181], 0 to 80%.
Take `CCOCC(=O)OCOc1c(OC)ccnc1C(=O)N[C@H]1CCC[C@H](CCOC)[C@@H](Oc2ccccc2)[C@H](C)OC1=O` [Compound F183]: the pest or weed control at 100 ppm in the series on Cercospora beticola lay in the range of 0 to 80%.
As for `CCOCC(=O)OCOc1c(OC)ccnc1C(=O)N[C@H]1CCC[C@H](Cc2ccc(F)cc2F)[C@@H](OC(=O)c2ccco2)[C@H](C)OC1=O` [Compound F193], the melting point was in the range of 70 to 75 °C. In addition, the pest or weed control at 100 ppm in the series on Cercospora beticola was in the range of 80 to 100%.
For the molecule `CCCO[C@@H]1[C@@H](Cc2ccccc2)CCC[C@H](NC(=O)c2nccc(OC)c2OC(=O)CCOC)C(=O)O[C@H]1C` [Compound F198], the pest or weed control at 100 ppm with Cercospora beticola lay in the range of 80 to 100%.

The values are drawn from patent US9265253B2, “Use of macrocyclic picolinamides as fungicides” (DOW AGROSCIENCES LLC, priority 2013, dated 2016).
